Reference: PubChem BioAssay (NCI)
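GI50 is the concentration that inhibits growth by half. The concentration for full growth arrest is given as TGI.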

Legend:
Test in all cases: growth of human tumour cells (NCI), 384-well format; in the data active = GI50 below about 0.43 µM; inactive = the rest
NCI/ADR-RES ovarian = tested on: NCI/ADR-RES ovarian
HCC-2998 colon = tested on: HCC-2998 colon
RPMI-8226 leukemia = tested on: RPMI-8226 leukemia
OVCAR-3 ovarian = tested on: OVCAR-3 ovarian
HOP-62 NSCLC = tested on: HOP-62 NSCLC
786-0 renal = tested on: 786-0 renal
SN12C renal = tested on: SN12C renal
A549 NSCLC = tested on: A549 NSCLC
SF-268 CNS = tested on: SF-268 CNS
MDA-MB-435 melanoma = tested on: MDA-MB-435 melanoma
UACC-62 melanoma = tested on: UACC-62 melanoma
CAKI-1 renal = tested on: CAKI-1 renal
PC-3 prostate = tested on: PC-3 prostate
HCT-15 colon = tested on: HCT-15 colon
DU-145 prostate = tested on: DU-145 prostate
SK-MEL-28 melanoma = tested on: SK-MEL-28 melanoma
T-47D breast = tested on: T-47D breast
SF-295 CNS = tested on: SF-295 CNS
ACHN renal = tested on: ACHN renal
OVCAR-4 ovarian = tested on: OVCAR-4 ovarian
KM12 colon = tested on: KM12 colon
RXF 393 renal = tested on: RXF 393 renal
CCRF-CEM leukemia = tested on: CCRF-CEM leukemia
SW-620 colon = tested on: SW-620 colon
NCI-H460 NSCLC = tested on: NCI-H460 NSCLC
MCF7 breast = tested on: MCF7 breast
LOX IMVI melanoma = tested on: LOX IMVI melanoma
HS 578T breast = tested on: HS 578T breast
IGROV1 ovarian = tested on: IGROV1 ovarian
SNB-19 CNS = tested on: SNB-19 CNS
HCT-116 colon = tested on: HCT-116 colon
MDA-MB-468 breast = tested on: MDA-MB-468 breast
SR leukemia = tested on: SR leukemia
MOLT-4 leukemia = tested on: MOLT-4 leukemia
TK-10 renal = tested on: TK-10 renal
NCI-H322M lung = tested on: NCI-H322M lung
SK-MEL-5 melanoma = tested on: SK-MEL-5 melanoma
UO-31 renal = tested on: UO-31 renal
OVCAR-8 ovarian = tested on: OVCAR-8 ovarian
NCI-H522 lung = tested on: NCI-H522 lung
SK-OV-3 ovarian = tested on: SK-OV-3 ovarian
HT29 colon = tested on: HT29 colon
U251 glioblastoma = tested on: U251 glioblastoma
BT-549 breast = tested on: BT-549 breast
SF-539 CNS = tested on: SF-539 CNS
HL-60(TB) leukemia = tested on: HL-60(TB) leukemia
K-562 leukemia = tested on: K-562 leukemia
EKVX NSCLC = tested on: EKVX NSCLC
MALME-3M melanoma = tested on: MALME-3M melanoma
COLO 205 colon = tested on: COLO 205 colon
NCI-H23 lung = tested on: NCI-H23 lung
MDA-MB-231 breast = tested on: MDA-MB-231 breast
SNB-75 CNS = tested on: SNB-75 CNS
HOP-92 NSCLC = tested on: HOP-92 NSCLC
M14 melanoma = tested on: M14 melanoma

O=C(NCc1ccc(S(=O)(=O)c2cc(F)cc(F)c2)cc1)c1ccc2nccn2c1
0.0124 µM: TGI (EKVX NSCLC)
0.0102 µM: TGI (HT29 colon)
0.0203 µM: TGI (A549 NSCLC)
< 0.01 µM: TGI (NCI/ADR-RES ovarian) | TGI (HCC-2998 colon) | TGI (RPMI-8226 leukemia) | TGI (OVCAR-3 ovarian) | TGI (HOP-62 NSCLC) | TGI (786-0 renal) | TGI (SN12C renal) | TGI (SF-268 CNS) | TGI (MDA-MB-435 melanoma) | TGI (UACC-62 melanoma) | TGI (CAKI-1 renal) | TGI (PC-3 prostate) | TGI (HCT-15 colon) | TGI (DU-145 prostate) | TGI (SK-MEL-28 melanoma) | TGI (T-47D breast) | TGI (SF-295 CNS) | TGI (ACHN renal) | TGI (KM12 colon) | TGI (RXF 393 renal) | TGI (CCRF-CEM leukemia) | TGI (SW-620 colon) | TGI (MCF7 breast) | TGI (HS 578T breast) | TGI (IGROV1 ovarian) | TGI (SNB-19 CNS) | TGI (HCT-116 colon) | TGI (MDA-MB-468 breast) | TGI (SR leukemia) | TGI (MOLT-4 leukemia) | TGI (TK-10 renal) | TGI (NCI-H322M lung) | TGI (SK-MEL-5 melanoma) | TGI (UO-31 renal) | TGI (OVCAR-8 ovarian) | TGI (NCI-H522 lung) | TGI (SK-OV-3 ovarian) | TGI (U251 glioblastoma) | TGI (BT-549 breast) | TGI (SF-539 CNS) | TGI (HL-60(TB) leukemia) | TGI (K-562 leukemia) | TGI (COLO 205 colon) | TGI (NCI-H23 lung) | TGI (SNB-75 CNS) | TGI (M14 melanoma)
0.0435 µM: TGI (HOP-92 NSCLC)
0.0263 µM: TGI (NCI-H460 NSCLC)
0.0183 µM: TGI (MDA-MB-231 breast)
0.0114 µM: TGI (OVCAR-4 ovarian)
0.0257 µM: TGI (LOX IMVI melanoma)
0.0274 µM: TGI (MALME-3M melanoma)
active: GI50 (NCI/ADR-RES ovarian) < 0.01 µM | GI50 (HCC-2998 colon) < 0.01 µM | GI50 (RPMI-8226 leukemia) < 0.01 µM | GI50 (OVCAR-3 ovarian) < 0.01 µM | GI50 (HOP-62 NSCLC) < 0.01 µM | GI50 ([…]-0 renal) < 0.01 µM | GI50 (SN12C renal) < 0.01 µM | GI50 (A549 NSCLC) < 0.01 µM | GI50 (SF-268 CNS) < 0.01 µM | GI50 (MDA-MB-435 melanoma) < 0.01 µM | GI50 (UACC-62 melanoma) < 0.01 µM | GI50 (CAKI-1 renal) < 0.01 µM | GI50 (PC-3 prostate) < 0.01 µM | GI50 (HCT-15 colon) < 0.01 µM | GI50 (DU-145 prostate) < 0.01 µM | GI50 (SK-MEL-28 melanoma) < 0.01 µM | GI50 (T-47D breast) < 0.01 µM | GI50 (SF-295 CNS) < 0.01 µM | GI50 (ACHN renal) < 0.01 µM | GI50 (OVCAR-4 ovarian) < 0.01 µM | GI50 (KM12 colon) < 0.01 µM | GI50 (RXF 393 renal) < 0.01 µM | GI50 (CCRF-CEM leukemia) < 0.01 µM | GI50 (SW-620 colon) < 0.01 µM | GI50 (NCI-H460 NSCLC) 0.0116 µM | GI50 (MCF7 breast) < 0.01 µM | GI50 (LOX IMVI melanoma) < 0.01 µM | GI50 (HS 578T breast) < 0.01 µM | GI50 (IGROV1 ovarian) < 0.01 µM | GI50 (SNB-19 CNS) < 0.01 µM | GI50 (HCT-116 colon) < 0.01 µM | GI50 (MDA-MB-468 breast) < 0.01 µM | GI50 (SR leukemia) < 0.01 µM | GI50 (MOLT-4 leukemia) < 0.01 µM | GI50 (TK-10 renal) < 0.01 µM | GI50 (NCI-H322M lung) < 0.01 µM | GI50 (SK-MEL-5 melanoma) < 0.01 µM | GI50 (UO-31 renal) < 0.01 µM | GI50 (OVCAR-8 ovarian) < 0.01 µM | GI50 (NCI-H522 lung) < 0.01 µM | GI50 (SK-OV-3 ovarian) < 0.01 µM | GI50 (HT29 colon) < 0.01 µM | GI50 (U251 glioblastoma) < 0.01 µM | GI50 (BT-549 breast) < 0.01 µM | GI50 (SF-539 CNS) < 0.01 µM | GI50 (HL-60(TB) leukemia) < 0.01 µM | GI50 (K-562 leukemia) < 0.01 µM | GI50 (EKVX NSCLC) < 0.01 µM | GI50 (MALME-3M melanoma) < 0.01 µM | GI50 (COLO 205 colon) < 0.01 µM | GI50 (NCI-H23 lung) < 0.01 µM | GI50 (MDA-MB-231 breast) < 0.01 µM | GI50 (SNB-75 CNS) < 0.01 µM | GI50 (HOP-92 NSCLC) 0.0204 µM | GI50 (M14 melanoma) < 0.01 µM
